# According to patent publication US5430036A, “6,11-substituted-6,11-dihydrobenzo[b]quinolizinium salts and compositions and method of use thereof” (Sterling Winthrop Inc., priority 1994, dated 1995):
# Legend:
# PCP recognition sites [1] = test: [3H]TCP radioreceptor assay (internal screen), binding to PCP recognition sites in rat whole brain membranes; set-up: species or system rat (male Sprague-Dawley); conditions: 25 min, room temperature; for Ki: approx. 1 nM [3H]TCP, mean of at least two separate determinations
# Protocol: [^3 H]TCP binding to PCP recognition sites was performed as described by Vignon et al. Brain Research 1983, 280, 194-197. Male Sprague-Dawley rats were sacrificed by decapitation, and whole brains were homogenized in 10 volumes (wt/vol) of cold Tris-HCl buffer (50 mM, pH 7.7) using a Brinkmann Polytron (setting 6, 30 sec). The homogenate was centrifuged at 40,000×g for 10 min at 4° C. The supernatant was decanted, and the homogenization and centrifugation steps were repeated twice as described above. Following this, the pellet was resuspended in Tris-HCl (5 mM, pH 7.7) at a tissue concentration of 0.5-0.75 g/ml, and one ml aliquots were frozen at -70° C. until use. The binding characteristics for PCP recognition sites were not altered by the freezing of membrane suspensions.
# On the day of the assay, membrane aliquots were thawed, resuspended in fresh 5 mM Tris-HCl buffer at a tissue concentration of 1 mg/ml, and stored on ice until use. Each assay tube contained 100 μl of [^3 H]TCP at a final concentration of approximately 1 nM, 100 μl of various concentrations of the compounds of interest, 500 μl of the tissue suspension and 300 μl of buffer to a final assay volume of 1 ml and a final protein concentration of 0.5 mg/tube. Non-specific binding was defined by addition of a final concentration of 100 μM PCP to blank tubes. All tubes were incubated at room temperature for 25 min before termination of the reaction by rapid filtration over Whatman GF/B glass fiber filters that had been presoaked in a solution of 0.5% polyethylenimine for at least 1 hr prior to use. Filters were washed with three 4 ml volumes of cold Tris buffer. Following addition of scintillation cocktail, the amount of bound radioactivity was determined by liquid scintillation spectrometry using a Beckman LS 5000TA liquid scintillation counter with an efficiency for tritium of approximately 55%. Inhibition constants (Ki values) were calculated using the EBDA/LIGAND program (McPherson, J. Pharmacol. Meth. 1985, 14, 213-228), purchased from Elsevier/Biosoft, Inc. Results are reported as Ki values which are expressed as the mean of at least two separate determinations; or as a percent (%) inhibition of binding at 10 μM.
# PCP recognition sites [2] = test: [3H]TCP radioreceptor assay (external screen), binding to PCP recognition sites in whole rat forebrain membranes; conditions: 25° C., 60 min
# Protocol: A procedure similar to that described above, for the [^3 H]TCP radioreceptor assay (internal screen) was utilized except that the whole rat forebrain membranes were incubated at 25° C. for 60 minutes rather than at room temperature for 25 minutes, before termination of the reaction. The results are reported as a percent (%) inhibition of binding at 10 μM.
# [3] = system: NMDA-induced neurotoxicity in cultured cortical neurons; test: Antagonism of NMDA-induced neurotoxicity in cultured cortical neurons (LDH release); type: cell-based, mouse (Swiss-Webster); conditions: Mus musculus, Cortical neurone; 500 μM NMDA, 30 min exposure; LDH activity 24 h after removal of NMDA; day 13 cultured cortical neurons
# Protocol: Pregnant, Swiss-Webster mice were obtained from Taconic Farms (Germantown, N.Y.) and sacrificed 16 days post conception. Fetuses were removed and placed in a sterile dish containing Hank's balanced salt solution (HBSS), pH 7.4. Brain cortices were dissected, meninges were removed, the tissue was minced and placed into a solution of HBSS containing 0.25% (w/v) trypsin at 37° C. for 15 minutes. Tissue was then triturated with a sterile pasteur pipet, diluted with minimal essential media (Gibco 330-1430), pH 7.4, supplemented with 10% horse serum, 10% fetal calf serum, 2 mM 1-glutamine, 21 mM d-glucose, 2.2 g/L sodium bicarbonate, 1000 U/ml penicillin, and 1,000 μg/ml streptomycin. Cells were plated onto Falcon primaria 96 well plates at a final density of 50,000 cells/well and incubated at 37° C. in the presence of 5% (v/v) carbon dioxide. After 5 days, plating media was replaced with maintenance media containing minimal essential media (Gibco 330-1430), pH 7.4, supplemented with 10% horse serum, 10% 1-glutamine, 21 mM d-glucose, 2.2 g/l sodium bicarbonate,1,000 U/ml penicillin, 1,000 μg/ml streptomycin, and 10 μM cytosine arabinoside. On days 7 and 10, media was replaced with maintenance media as above lacking the cytosine arabinoside. Experiments were conducted on day 13. […]
Structure (SMILES),Ki (PCP recognition sites [1]),[3H]TCP (external screen) Percent Inhibition (%) @10 μM (PCP recognition sites [2]),further results
"c1ccc2c(c1)C1c3cccc[n+]3C2C2CCOC12 (centres unmarked) [Example 8, 6,11[2',3']tetrahydrofuranyl-6,11-dihydrobenzo[b]-quinolizinium bromide]",8.49 µM,,
"O=[N+]([O-])c1cccc2c1C1c3ccccc3C2c2cccc[n+]21 (centres unmarked) [15(b), 7-Nitro-6,11-benzeno-6,11-dihydrobenzo[b]quinolizinium perchlorate]",,9%,[3H]TCP (internal screen) Percent Inhibition @10 μM (PCP recognition sites [1]): 37%
"c1ccc2c(c1)C1c3cccc[n+]3C2C2CCCC12 (centres unmarked) [Example 13(a), 6,11[1',2']cyclopentyl-6,11-dihydrobenzo[b]quinolizinium perchlorate.1/2 hydrate]",,,Ki (PCP recognition sites [1]; hydrate): 1.56 µM
"CC12c3ccccc3C(c3cccc[n+]31)C1C=CCC12 (centres unmarked) [12(c), 6-methyl-6,11[3',4']cyclopentenyl-6,11-dihydrobenzo[b]quinolizinium perchlorate, .1/2 H2 O]",0.0934 µM,,
"Cc1cccc2c1C1c3ccccc3C2c2cccc[n+]21 (centres unmarked) [15(d), 7-Methyl-6,11-benzeno-6,11-dihydrobenzo[b]quinolizinium perchlorate]",,11%,[3H]TCP (internal screen) Percent Inhibition @10 μM (PCP recognition sites [1]): 52%
"Fc1ccc2c(c1)C1c3cccc[n+]3C2C2CC=CC12 (centres unmarked) [5(c), 9-fluoro-6,11[3',4']cyclopentenyl-6,11-dihydrobenzo-[b]quinolizinium perchlorate]",0.806 µM,,
"CC(C)(C)c1ccc(O)c2c1C1c3ccccc3C2[n+]2ccccc21 (centres unmarked) [15(c), 7-Hydroxy-10-tert-butyl-6,11-benzeno-6,11-dihydrobenzo[b]quinolizinium perchlorate]",,24%,[3H]TCP (internal screen) Percent Inhibition @10 μM (PCP recognition sites [1]): 10%
"C1=CC2C3c4ccccc4C(C2CC1)[n+]1ccccc13 (centres unmarked) [Example 1, 6,11[3',4']-cyclohexenyl-6,11-dihydrobenzo[b]quinolizinium bromide]",0.245 µM,,
"C1=CC2C3c4ccccc4C(C2C1)[n+]1ccccc13 (centres unmarked) [15(a), 6,11-[3',4']cyclopentenyl-6,11-dihydrobenzo[b]quinolizinium bromide]",0.464 µM,92%,
"CC(C)=C1C=CC2C3c4ccccc4C(C12)[n+]1ccccc13 (centres unmarked) [14(b), 6,11-[5'-isopropylidene-[3',4']cyclopentenyl]-6,11-dihydrobenzo[b]quinolizinium perchlorate]",0.367 µM,,
"Brc1ccc2c(c1)C1c3cccc[n+]3C2C2CC=CC12 (centres unmarked) [4(c), 9-bromo-6,11[3',4']cyclopentenyl-6,11-dihydrobenzo[b]quinolizinium bromide]",1.63 µM,,
"c1ccc2c(c1)C1c3cccc[n+]3C2C2CCCC12 (centres unmarked) [Example 13(b), 6,11[1',2']cyclopentyl-6,11-dihydrobenzo[b]quinolizinium perchlorate.1/2 hydrate]",,,Ki (PCP recognition sites [1]; hydrate): 0.366 µM; IC50 [3]: 8400 nM
